Laboratory results as given in ChEMBL document CHEMBL1165863, “Lipophilicity of novel antitumour and analgesic active 8-aryl-2,6,7,8-tetrahydroimidazo[2,1-c][1,2,4]triazine-3,4-dione derivatives determined by reversed-phase HPLC and computational methods” (Eur J Med Chem, 2010).

What was measured:
[1] = Lipophilicity, Log p by HPLC; type: physicochemical
Mus musculus = test: (§1) Toxicity in ip dosed mouse; type: organism-based; details: in vivo
[2] = as §1; type: organism-based; details: in vivo

Compound	logP [1]	log(1/LD50) (Mus musculus)	LD50 [2] [mg/kg]	LD (Mus musculus) [mg/kg]
Cc1ccccc1N1CCn2c1n[nH]c(=O)c2=O	1.16			
Cc1ccc(N2CCn3c2n[nH]c(=O)c3=O)cc1	1.84	-3.25		
COc1ccccc1N1CCn2c1n[nH]c(=O)c2=O	0.97	-3.04		
O=c1[nH]nc2n(c1=O)CCN2c1ccccc1	1.31	-3.15		
O=c1[nH]nc2n(c1=O)CCN2c1cccc(Cl)c1	2	-3.3	2000	
O=c1[nH]nc2n(c1=O)CCN2c1ccc(Cl)c(Cl)c1	2.63			
O=c1[nH]nc2n(c1=O)CCN2c1ccc(Cl)cc1	1.99	-3.3		2000
COc1ccc(N2CCn3c2n[nH]c(=O)c3=O)cc1	1.21	-3.18		
